Measured values reported in patent US20260345584A1, “METHODS AND PHARMACEUTICAL COMPOSITIONS FOR TREATING CHEMOTHERAPY-INDUCED PERIPHERAL NEUROPATHY WITH EG5 INHIBITORS” (UNIVERSITY OF MIAMI, priority 2023, published 2026).

What was measured:
[1] = system: nox1; experiment: Nox1 immunofluorescence: subcellular translocation in keratinocytes; type: in vivo, zebrafish; settings: EMD534085 alone, 96 hr
Method: The stock solution was divided into 20-30 μl aliquots and stored at −20 °C until use (maximal 6 months). Immediately prior to use, paclitaxel was diluted in Ringer's solution and added to dechorionated larval zebrafish. The larval fish were placed individually or in small groups into wells of a 12-well plate containing the treatment solutions. The control group was 0.05% DMSO. Plates were incubated at 28.5 °C and protected from light. Treatment lengths are indicated in the Drawings, Description of the Drawings, and Examples where appropriate. […] EMD534085, Eg5 inhibitor (MedChemExpress, Cat. No. HY-15000) was diluted in 100% DMSO to make a 10 mM stock solution and stored at −20 °C. […] The solutions were exchanged every 48 hr. […]
Measurements were determined by measuring fluorescence intensity in Fiji using single slice and single channel modes. First, a line using the line tool was placed along the plasma membrane that was clearly distinguishable from the cytoplasm due to increased fluorescence compared with the cytoplasm in all treatment groups. The measurement tool was subsequently selected to measure the mean fluorescence intensity. […] To determine the mean cytoplasmic fluorescence intensity, nuclei were first overlaid with Nox1 fluorescence to ensure the exclusion of nuclear measurements. […] The fluorescence data was exported to Excel and the ratios calculated.

[2] = system: keratinocyte nuclei; experiment: Nuclear volume and sphericity of keratinocytes; type: in vivo, zebrafish; settings: 96 hr, keratinocytes with dfMTs
Method: Nuclear sphericity and volume were calculated in Imaris following 3D rendering of round keratinocyte nuclei using the Surface tool. First, background subtractions were performed, followed by automatic threshold detection. The threshold was adjusted if necessary to fit the nucleus. Thresholds were kept constant for comparisons.
It was expected that dfMTs should be in close proximity to the nucleus in order to activate Nox1 by mechanotransduction. To further confirm this expectation, high resolution imaging and 3D rendering of keratinocyte dfMTs and nuclei were used.

[3] = system: Eg5; experiment: Eg5 immunofluorescence in zebrafish caudal fin; type: in vivo; settings: 22 μM paclitaxel, 96 hr
Method: The stock solution was divided into 20-30 μl aliquots and stored at −20 °C until use (maximal 6 months). Immediately prior to use, paclitaxel was diluted in Ringer's solution and added to dechorionated larval zebrafish. The larval fish were placed individually or in small groups into wells of a 12-well plate containing the treatment solutions. The control group was 0.05% DMSO. Plates were incubated at 28.5 °C and protected from light. Treatment lengths are indicated in the Drawings, Description of the Drawings, and Examples where appropriate. […] EMD534085, Eg5 inhibitor (MedChemExpress, Cat. No. HY-15000) was diluted in 100% DMSO to make a 10 mM stock solution and stored at −20 °C. […] The solutions were exchanged every 48 hr.
Larval fish were transferred into […] glass vials and fixed in 4% paraformaldehyde (PFA)/1× Phosphate-buffered saline (PBS) for 1.5 hr at room temperature, with gentle rocking. Following a 5-minute incubation in 1×PBS+0.1% Tween-20 (PBST), zebrafish were permeabilized in 1×PBS+0.1% Triton X-100 for 10-30 min. Larval fish were transferred into 2 ml reaction tubes and incubated in blocking buffer (1×PBST+5% BSA) for 30 min at room temperature, with rocking. […]

[4] = system: mmp13a; experiment: qPCR mmp13 expression, whole larvae; type: in vivo, zebrafish; settings: wildtype, 48 hr paclitaxel
Method: Zebrafish larvae (AB/Nacre) were treated in pools of ~20-30 larvae per treatment per biological replicate (BR); each BR consisted of embryos from distinct parents. Larvae were collected into 1.5 ml reaction tubes post-treatment and RNA extraction was performed using the rNeasy Plus Micro kit (Qiagen, Cat. No. 74034). cDNA was synthesized from ~300 ng total RNA using the Superscript IV VILO kit (Thermo Fisher, Cat. No. 11756050). Primers in target genes were designed wherein primers annealed in two exons separated by one or several large introns that could not be amplified with the selected PCR settings, to avoid genomic DNA contamination. Quantitative PCR was performed with the Applied Biosystems QuantStudio 3 using PowerUp SYBR Green (ThermoFisher, Cat No. A25741). Amplification signals for expressed target genes were normalized to zebrafish 18S rRNA signals. qPCR conditions were used as follows: 95 °C for 10 minutes, 40 cycles of 95 °C for 15 seconds, 50 °C for 30 seconds, 72 °C for 30 seconds. Each biological replicate was run in quadruplicate. Data were presented as relative expression compared to control using the delta-vdelta Ct (2^^-ΔΔCt) method.
Stretching was performed after 96 hr treatment, followed by 2 hr post-stretch fixation, and staining for detection of acetylated tubulin in axons.

| Structure (SMILES) | Nox1 Membrane:cytoplasmic ratio [1] | Nox1 Nucleus:cytoplasmic ratio [1] | nuclear volume ([2]; 22 μM paclitaxel) [μm3] | nuclear sphericity (1=spherical vs. 0=nonspherical) ([2]; paclitaxel) | Eg5 localization/induction [3] | mmp13 expression [4] |
| --- | --- | --- | --- | --- | --- | --- |
| CN(C)CCNC(=O)NC[C@H]1CC[C@@H]2[C@H](O1)c1cc(C(F)(F)F)ccc1N[C@H]2c1ccccc1 [EMD534085] | 1.7±0.1 | 1.36±0.08 |  |  |  |  |
| CC(=O)O[C@H]1C(=O)[C@@]2(C)[C@H]([C@H](OC(=O)c3ccccc3)[C@]3(O)C[C@H](OC(=O)[C@H](O)[C@@H](NC(=O)c4ccccc4)c4ccccc4)C(C)=C1C3(C)C)[C@]1(OC(C)=O)CO[C@@H]1C[C@@H]2O [paclitaxel] |  |  | 582±83.18 | 0.23±0.01 | promoted Eg5 puncta formation | increased mmp13 expression |
